Reference: publication PMC11040670, “Mechanistic and Kinetic Insights into Cellular Uptake of Biomimetic Dinitrosyl Iron Complexes and Intracellular Delivery of NO for Activation of Cytoprotective HO-1” (JACS Au, 2024)

What was measured:
[1] = system: N2a; assay: Whole-cell EPR: cellular uptake and intracellular formation/decomposition of mononuclear DNIC in N2a; type: cell-based, mouse; conditions: for tmax for cellular uptake and intracellular transformation (whole-cell EPR): normoxia, 100 μM DNIC–COOH or 10 μM DNIC–COOMe
Description: (§1) Cellular uptake of DNIC–COOH and intracellular formation/decomposition of mononuclear DNICs in MSC/N2a/HCEC cells were investigated using EPR spectroscopy. Briefly, cells were seeded into two (or one) 100 mm dish(es) at a density of 2 × 10^6 cells/dish and incubated at 37 °C overnight. On the next day, cells were treated with 100 μM of DNIC–COOH (or 100 μM of DNIC–COOH to N2a and 75 μM of DNIC–COOH to HCEC) and incubated for 0, 0.5, 1, 2, 3, 4, 8, and 24 h, respectively. After removal of the supernatant solution, cells were washed with DPBS before addition of 1 mL of trypsin (0.05%)/EDTA (0.53 mM) and incubation for 5 min at 37 °C. After the obtained cell suspension solutions from two 100 mm dishes were combined and centrifuged at 100g for 5 min, the supernatant was removed before addition of 100 μL of αMEM to DNIC-treated MSC (or MEM to DNIC-treated N2a and HSFM to DNIC-treated HCEC). This solution was then transferred into EPR quartz tube and frozen in N2(l) before the EPR measurements. For each measured EPR spectrum, double integration was executed to obtain the integrated EPR intensity under each condition. Moreover, time-dependent decay of integrated EPR signal intensity after treatment of DNIC–COOH was fit to pseudo-first-order kinetics in order to determine the intracellular half-life for EPR-active mononuclear DNIC. Three independent experiments were executed to measure the average half-life for intracellular decomposition of EPR-active mononuclear DNIC after treatment with DNIC–COOH at 37 °C. On the other hand, at the time point with maximum integrated EPR signal intensity, spin quantitation of intracellular EPR-active DNICs was performed using mononuclear DNIC [PPN][(NO)2Fe(S5)] as a standard according to the methodology used in the previous work.[50] Cellular uptake of DNIC–COOMe (2.5 μM to MSC, 10 μM to N2a, or 1 μM to HCEC) and intracellular formation/decomposition of EPR-active mononuclear DNICs were investigated using EPR spectroscopy in a similar manner.
Studies of cellular uptake mechanisms were investigated using EPR spectroscopy in combination with pretreatments of alternative inhibitors. After the MSC cells were seeded into two (or one) 100 mm dish(es) at a density of 2 × 10^6 cells/dish and incubated at 37 °C overnight, sequential treatments of 50 μM of NEM for 0.5 h and 100 μM of DNIC–COOH for 2 h were performed before the treated MSC cells were collected for EPR measurement following the procedure described above. […]

[2] = system: MSC/N2a/HCEC; assay: Whole-cell EPR, results stated jointly for MSC/N2a/HCEC; type: cell-based; conditions: for tmax for cellular uptake: stated jointly for MSC/N2a/HCEC
Description: as §1, with “manner. […]” for “manner.”

[3] = system: MSC; assay: Intracellular release of NO (DAF-FM fluorescence) in MSC; type: cell-based, human; conditions: 100 μM DNIC–COOH or 2.5 μM DNIC–COOMe
Description: Intracellular release of NO by DNIC–COOH was validated using the fluorescence probe 4-amino-5-methylamino-2′,7′-difluorofluorescein diacetate (DAF-FM) in combination with fluorescence analysis techniques. Briefly, the MSC cells (or N2a and HCEC cells) were seeded onto a 96-well black plate at a density of 6 × 10^3 cells/well (or 1 × 10^4 cells/well for N2a and 8 × 10^3 cells/well for HCEC cells) and incubated at 37 °C overnight. On the next day, the MSC cells were first treated with 10 μM of DAF-FM (or 5 μM for N2a and HCEC cells) and incubated at 37 °C for 0.5 h. […] Fluorescence intensity of the cells was then recorded using a microplate reader (SpectraMax iD3, Molecular Devices, San Jose, CA) with an excitation wavelength at 485 nm and an emission wavelength at 525 nm. Three independent experiments were executed to measure the time-dependent change of average fluorescence intensity. Time-dependent change of average fluorescence intensity for the MSC/N2a/HCEC cells with sequential treatment of DAF-FM (10 μM for MSC cells, 5 μM for N2a cells, 5 μM for HCEC cells; 0.5 h) and DNIC–COOMe (2.5 μM for MSC cells, 10 μM for N2a cells, 1 μM for HCEC cells) was determined in a similar manner. […]

Structure (SMILES)	relative whole-cell EPR signal intensity at gav = 2.03 (control = 100%) ([1]; CPZ-treated N2a) [%]	relative whole-cell EPR signal intensity at gav = 2.03 (control = 100%) ([1]; MβCD-treated N2a) [%]	tmax for cellular uptake and intracellular transformation (whole-cell EPR) ([1]; N2a) [h]	tmax for cellular uptake [2] [h]	tmax for intracellular release of NO [3] [h]	relative whole-cell EPR signal intensity at gav = 2.03 (control = 100%) ([1]; N2a, native FBS replaced with 5% NEM-treated FBS) [%]	relative whole-cell EPR signal intensity at gav = 2.03 (control = 100%) ([1]; N2a, pretreatment of NEM 0.5 h, then DNIC–COOMe 0.5 h, reduction) [%]	tmax for intracellular assembly of mononuclear DNICs ([2]; MSC/N2a/HCEC, hypoxia) [h]
O=[N][Fe]1([N]=O)[SH](CCC(=O)O)[Fe]([N]=O)([N]=O)[SH]1CCC(=O)O (centres unmarked) [DNIC–COOH, [(NO)2Fe(μ-SCH2CH2COOH)2Fe(NO)2]]	77.6 ± 22.5	81.7 ± 18.2	2	2 to 8	4	–	–	–
COC(=O)CC[SH]1[Fe]([N]=O)([N]=O)[SH](CCC(=O)OC)[Fe]1([N]=O)[N]=O (centres unmarked) [DNIC–COOMe, [(NO)2Fe(μ-SCH2CH2COOCH3)2Fe(NO)2]]	–	–	0.5	0.5	1	116.2 ± 33.6	20.1 ± 9.7	0.5
